Measured values reported in patent US20250042887A1, “GLYCOGEN SYNTHASE KINASE-3 (GSK3) INHIBITOR COMPOUNDS FOR USE AS ANTIVIRAL AGENTS” (priority 2021, published 2025).
“Also recorded” adds a separate entry of the source.

Tested on: SARS-CoV-2 B.1.617.2 and BA.1 variants
Format: cell-based
Conditions: B.1.617.2 (Delta) and BA.1 (Omicron)

## CSc1ccc(-n2cnc3ccc(-c4nnc(CCc5cccc(C#N)c5)o4)cc32)cc1 [Compound P-0717632]
  effect on SARS-CoV-2 variants: reduced intracellular viral titres; also recorded: inhibited
